This is an account of results in patent US20090131465A1, “Synthesis and crystalline forms of melanocortin-4 receptor agonist” (priority 2007, published 2009).

Each structure is given as a SMILES string.

Data set [1] can be described thus: aqueous solubility of the crystalline form (statement only, no method). It counts as physicochemical. The settings on record: qualitative statement, no conditions given.
A short description of data set [2]: chemical and physical stability of the crystalline form (statement only, no method). It counts as physicochemical. The settings on record: qualitative statement, no conditions given.

With `CC(=O)NC(C)(C)[C@@H]1CC2(CCN(C(=O)[C@@H]3CN(C(C)(C)C)C[C@H]3c3ccc(F)cc3F)CC2)c2cc(Cl)c(C)cc21.Cl` [N-[1-((3R)-1′-1′-{[(3S,4R)-1-tert-butyl-4-(2,4-difluorophenyl)pyrrolidine-3-yl]carbonyl}-6-chloro-5-methyl-2,3-dihydrospiro[indene-1,4′-piperidine]-3-yl)-1-methylethyl]acetamide], in data set [1], the aqueous solubility entry is “good”. Further, the “chemical and physical stability” value in data set [2] is “good”.
